# US11957783B2, “Topical immunosensitizers to treat viral and fungal infections” (Squarex, LLC, priority 2018, dated 2024)
# Test system: peripheral blood mononuclear cells (PBMC)
# Assay: Cytokine and immune-function gene expression of PBMC in vitro (qRT-PCR, 41 immune-related genes)
# Assay type: cell-based, human
# Procedure: After a screening visit at which blood was drawn to test for IgG antibody against HSV-1 and subjects were interviewed for inclusion/exclusion criteria, selected subjects returned for blood draws on day 1. After the blood draw on day 1, subjects in group A only were dosed with SADBE. A petrolatum donut was applied with a cotton swab to form about a 1 cm diameter donut on skin on the inner aspect of the upper arm. Then a separate cotton swab was dipped in a 2% SADBE solution (w/v) in DMSO, and the swab was then used to apply about 10-20 mg of solution over about a 1 cm diameter circle within the petrolatum donut. Immediately after application, the application site was covered with TEGADERM. Subjects were advised to remove the TEGADERM and rinse and wipe the spot three hours later. The group A subjects then returned for blood draws on days 15 and 57 and were queried about adverse events on those dates.
# PBMC were isolated using SepMate PBMC isolation tubes (Stem Cell Technologies, Vancouver, Canada) and Ficoll-Paque according to the manufacturer's instructions. PBMC were isolated and suspended in negative control medium at 2 million cells/ml. PBMC suspension (100 μL) was added to 100 μL of medium in quadruplicate in 96-well plates. The plates were prepared in advance and stored at −70° C. The wells were in five different conditions in quadruplicate with these final concentrations after addition of the 100 μL of PBMC suspension in negative control medium. • 1. Negative control in medium (RPMI with glutamine and pen/strep, supplemented with 10% human A/B serum). • 2. Medium plus 16 μg/ml protein from heat-inactivated HSV-1-infected Vero cell extracts. • 3. Medium plus heat-inactivated HSV-1 cell-free virus at a final 7.5 million pfu/ml. • 4. Medium plus Candida cell extract. (Greer item number M15A50, 20,000 pnu/ml allergenic extract mixed molds Candida albicans, was diluted 1/50 into medium). • 5. Positive control, medium plus 10 μg/ml concanavalin A.
# Two plates were created for each subject at each collection point. One plate was incubated for 2 days at 37° C. in a humidified 5% CO2 atmosphere and then RNA was isolated from the pooled contents of the 4 wells of a given condition for a specific patient, and the RNA was stored at −70° C. and subsequently used for quantitative real time PCR analysis of gene expression of 41 immune-related genes.
# As noted above, after 2 days of growth of the PBMC in a 37° C. humidified 5% CO2 incubator in a 96-well plate, four wells of a single condition (negative control, positive control, heat-inactivated HSV-1, HSV-1-infected cell extracts, or Candida extract) with cells from a single subject (200 μL in each well) were pooled, and the RNA was immediately isolated with Trizol reagent and chloroform by Qiagen RNeasy MiniElute clean up kit Qiagen cat #74204, according to manufacturer's instructions into a final volume of 13 μL, and then flash frozen on powdered dry ice, and stored at −70° C. in aliquots of 3 μL for RNA quantification and 10 μL for PCR analysis.
# RNA was preamplified with the Qiagen RT2 PreAMP cDNA synthesis kit (Ref. 330451) and custom RT2 PreAmp primer mix (Ref. 330141) starting with about 50 ng RNA according to the procedure of RT preamp cDNA synthesis handbook date March 2011, pages 17-20. The amplification reactions (final 120 μL) were frozen at −70° C. and used for qPCR analysis the next day.
# qPCR was done with the Qiagen RT PCR profiler gene analysis kit (catalog number 330451) using RT2 Sybr Green Rox qPCR Mastermix (24) (Part 330523) and Custom RT2 PCR array plates (Ref. 330171). For this 675 μL 2×RT2 SYBR green mastermix, 51 μL pre-AMP synthesis reaction, and 623 μL RNase free water were mixed, and then 25 μL of the mixture was added to 48 wells on the left or right half of the custom PCR plate. The PCR instrument was Applied Biosystems 7900HT fast real time PCR. […]
# [1] = Group A, HSV-infected cell extracts
smiles,measurement,setting,value
"CCCCOc1c(OCCCC)c(=O)c1=O [SADBE, 3,4-Dibutoxy-3-cyclobutene-1,2-dione]",Ratio of absolute IFNG gene expression in group A vs. Groups B + C pooled,"Candida, group A day 57 after SADBE",2.684
same,CCL2 ratio of PBMC absolute gene expression day 15/day 1,"Group A, Candida",0.73
same,CCL2 ratio of PBMC absolute gene expression day 57/day 1,"Group A, Candida",1.16
same,CCL3 ratio of PBMC absolute gene expression day 15/day 1,"Group A, Candida",0.33
same,CCL3 ratio of PBMC absolute gene expression day 57/day 1,"Group A, Candida",1.79
same,CCL7 ratio of PBMC absolute gene expression day 15/day 1,"Group A, Candida",0.66
same,CCL7 ratio of PBMC absolute gene expression day 57/day 1,"Group A, Candida",2.03
same,CCR5 ratio of PBMC absolute gene expression day 15/day 1,"Group A, Candida",1.16
same,CCR5 ratio of PBMC absolute gene expression day 57/day 1,"Group A, Candida",1.42
same,CD80 ratio of PBMC absolute gene expression day 15/day 1,"Group A, Candida",0.75
same,CD80 ratio of PBMC absolute gene expression day 57/day 1,"Group A, Candida",1.57
same,CXCL2 ratio of PBMC absolute gene expression day 15/day 1,"Group A, Candida",0.39
same,CXCL2 ratio of PBMC absolute gene expression day 57/day 1,"Group A, Candida",1.10
same,CXCL5 ratio of PBMC absolute gene expression day 15/day 1,"Group A, Candida",0.46
same,CXCL5 ratio of PBMC absolute gene expression day 57/day 1,"Group A, Candida",1.45
same,CXCL9 ratio of PBMC absolute gene expression day 15/day 1,"Group A, Candida",2.52
same,CXCL9 ratio of PBMC absolute gene expression day 57/day 1,"Group A, Candida",14.21
same,CXCL10 ratio of PBMC absolute gene expression day 15/day 1,"Group A, Candida",2.87
same,CXCL10 ratio of PBMC absolute gene expression day 57/day 1,"Group A, Candida",12.8
same,CXCL11 ratio of PBMC absolute gene expression day 15/day 1,"Group A, Candida",1.06
same,CXCL11 ratio of PBMC absolute gene expression day 57/day 1,"Group A, Candida",2.53
same,DDX58 ratio of PBMC absolute gene expression day 15/day 1,"Group A, Candida",1.08
same,DDX58 ratio of PBMC absolute gene expression day 57/day 1,"Group A, Candida",1.29
same,FOXP3 ratio of PBMC absolute gene expression day 15/day 1,"Group A, Candida",1.16
same,FOXP3 ratio of PBMC absolute gene expression day 57/day 1,"Group A, Candida",2.01
same,GATA3 ratio of PBMC absolute gene expression day 15/day 1,"Group A, Candida",1.12
same,GATA3 ratio of PBMC absolute gene expression day 57/day 1,"Group A, Candida",0.28
same,ICAM1 ratio of PBMC absolute gene expression day 15/day 1,"Group A, Candida",1.03
same,ICAM1 ratio of PBMC absolute gene expression day 57/day 1,"Group A, Candida",1.27
same,IFNA1 ratio of PBMC absolute gene expression day 15/day 1,"Group A, Candida",1.42
same,IFNA1 ratio of PBMC absolute gene expression day 57/day 1,"Group A, Candida",2.13
same,IFNB1 ratio of PBMC absolute gene expression day 15/day 1,"Group A, Candida",1.03
same,IFNB1 ratio of PBMC absolute gene expression day 57/day 1,"Group A, Candida",0.93
same,IFNG ratio of PBMC absolute gene expression day 15/day 1,"Group A, Candida",0.81
same,IFNG ratio of PBMC absolute gene expression day 57/day 1,"Group A, Candida",8.54
same,IL1B ratio of PBMC absolute gene expression day 15/day 1,"Group A, Candida",0.17
same,IL1B ratio of PBMC absolute gene expression day 57/day 1,"Group A, Candida",1.73
same,IL1R1 ratio of PBMC absolute gene expression day 15/day 1,"Group A, Candida",0.69
same,IL1R1 ratio of PBMC absolute gene expression day 57/day 1,"Group A, Candida",0.9
same,IL1RN ratio of PBMC absolute gene expression day 15/day 1,"Group A, Candida",1
same,IL1RN ratio of PBMC absolute gene expression day 57/day 1,"Group A, Candida",1.91
same,IL2 ratio of PBMC absolute gene expression day 15/day 1,"Group A, Candida",0.75
same,IL2 ratio of PBMC absolute gene expression day 57/day 1,"Group A, Candida",6.31
same,IL4 ratio of PBMC absolute gene expression day 15/day 1,"Group A, Candida",1.12
same,IL4 ratio of PBMC absolute gene expression day 57/day 1,"Group A, Candida",1.52
same,IL5 ratio of PBMC absolute gene expression day 15/day 1,"Group A, Candida",1.23
same,IL5 ratio of PBMC absolute gene expression day 57/day 1,"Group A, Candida",1.10
same,IL8 ratio of PBMC absolute gene expression day 15/day 1,"Group A, Candida",0.44
same,IL8 ratio of PBMC absolute gene expression day 57/day 1,"Group A, Candida",1.89
same,IL10 ratio of PBMC absolute gene expression day 15/day 1,"Group A, Candida",0.6
same,IL10 ratio of PBMC absolute gene expression day 57/day 1,"Group A, Candida",1.12
same,IL12A ratio of PBMC absolute gene expression day 15/day 1,"Group A, Candida",1.02
same,IL12A ratio of PBMC absolute gene expression day 57/day 1,"Group A, Candida",1.64
same,IL12B ratio of PBMC absolute gene expression day 15/day 1,"Group A, Candida",0.78
same,IL12B ratio of PBMC absolute gene expression day 57/day 1,"Group A, Candida",3.61
same,IL13 ratio of PBMC absolute gene expression day 15/day 1,"Group A, Candida",0.6
same,IL13 ratio of PBMC absolute gene expression day 57/day 1,"Group A, Candida",4.28
same,IL15 ratio of PBMC absolute gene expression day 15/day 1,"Group A, Candida",1.09
same,IL15 ratio of PBMC absolute gene expression day 57/day 1,"Group A, Candida",2.18
same,IL16 ratio of PBMC absolute gene expression day 15/day 1,"Group A, Candida",1.02
same,IL16 ratio of PBMC absolute gene expression day 57/day 1,"Group A, Candida",0.81
same,JAK2 ratio of PBMC absolute gene expression day 15/day 1,"Group A, Candida",1.1
same,JAK2 ratio of PBMC absolute gene expression day 57/day 1,"Group A, Candida",1.68
same,LTA ratio of PBMC absolute gene expression day 15/day 1,"Group A, Candida",1.15
same,LTA ratio of PBMC absolute gene expression day 57/day 1,"Group A, Candida",1.94
same,LYZ ratio of PBMC absolute gene expression day 15/day 1,"Group A, Candida",2.22
same,LYZ ratio of PBMC absolute gene expression day 57/day 1,"Group A, Candida",0.93
same,MX1 ratio of PBMC absolute gene expression day 15/day 1,"Group A, Candida",1.28
same,MX1 ratio of PBMC absolute gene expression day 57/day 1,"Group A, Candida",1.34
same,NOD1 ratio of PBMC absolute gene expression day 15/day 1,"Group A, Candida",1.19
same,NOD1 ratio of PBMC absolute gene expression day 57/day 1,"Group A, Candida",1.18
same,SPP1 ratio of PBMC absolute gene expression day 15/day 1,"Group A, Candida",2.32
same,SPP1 ratio of PBMC absolute gene expression day 57/day 1,"Group A, Candida",7.34
same,STAT1 ratio of PBMC absolute gene expression day 15/day 1,"Group A, Candida",1.12
same,STAT1 ratio of PBMC absolute gene expression day 57/day 1,"Group A, Candida",3.36
same,STAT4 ratio of PBMC absolute gene expression day 15/day 1,"Group A, Candida",1.07
same,STAT4 ratio of PBMC absolute gene expression day 57/day 1,"Group A, Candida",1.76
same,TNF ratio of PBMC absolute gene expression day 15/day 1,"Group A, Candida",0.85
same,TNF ratio of PBMC absolute gene expression day 57/day 1,"Group A, Candida",1.22
same,TNFSF10 ratio of PBMC absolute gene expression day 15/day 1,"Group A, Candida",1.02
same,TNFSF10 ratio of PBMC absolute gene expression day 57/day 1,"Group A, Candida",1.52
same,TNFSF13B ratio of PBMC absolute gene expression day 15/day 1,"Group A, Candida",1.14
same,TNFSF13B ratio of PBMC absolute gene expression day 57/day 1,"Group A, Candida",1.62
same,CCL2 ratio of PBMC absolute gene expression day 15/day 1,[1],0.88
same,CCL2 ratio of PBMC absolute gene expression day 57/day 1,[1],1.21
same,CCL3 ratio of PBMC absolute gene expression day 15/day 1,[1],1.31
same,CCL3 ratio of PBMC absolute gene expression day 57/day 1,[1],4.60
same,CCL7 ratio of PBMC absolute gene expression day 15/day 1,[1],0.92
same,CCL7 ratio of PBMC absolute gene expression day 57/day 1,[1],0.75
same,CCR5 ratio of PBMC absolute gene expression day 15/day 1,[1],1.00
same,CCR5 ratio of PBMC absolute gene expression day 57/day 1,[1],0.93
same,CD80 ratio of PBMC absolute gene expression day 15/day 1,[1],0.90
same,CD80 ratio of PBMC absolute gene expression day 57/day 1,[1],0.93
same,CXCL2 ratio of PBMC absolute gene expression day 15/day 1,[1],1.02
same,CXCL2 ratio of PBMC absolute gene expression day 57/day 1,[1],2.79
same,CXCL5 ratio of PBMC absolute gene expression day 15/day 1,[1],1.24
same,CXCL5 ratio of PBMC absolute gene expression day 57/day 1,[1],6.03
same,CXCL9 ratio of PBMC absolute gene expression day 15/day 1,[1],1.12
same,CXCL9 ratio of PBMC absolute gene expression day 57/day 1,[1],0.91
same,CXCL10 ratio of PBMC absolute gene expression day 15/day 1,[1],0.82
same,CXCL10 ratio of PBMC absolute gene expression day 57/day 1,[1],0.49
same,CXCL11 ratio of PBMC absolute gene expression day 15/day 1,[1],0.53
same,CXCL11 ratio of PBMC absolute gene expression day 57/day 1,[1],0.31
same,DDX58 ratio of PBMC absolute gene expression day 15/day 1,[1],0.72
same,DDX58 ratio of PBMC absolute gene expression day 57/day 1,[1],0.94
same,FOXP3 ratio of PBMC absolute gene expression day 15/day 1,[1],1.15
same,FOXP3 ratio of PBMC absolute gene expression day 57/day 1,[1],1.11
same,GATA3 ratio of PBMC absolute gene expression day 15/day 1,[1],2.84
same,GATA3 ratio of PBMC absolute gene expression day 57/day 1,[1],2.6
same,ICAM1 ratio of PBMC absolute gene expression day 15/day 1,[1],1.05
same,ICAM1 ratio of PBMC absolute gene expression day 57/day 1,[1],0.77
same,IFNA1 ratio of PBMC absolute gene expression day 15/day 1,[1],0.80
same,IFNA1 ratio of PBMC absolute gene expression day 57/day 1,[1],1.29
same,IFNB1 ratio of PBMC absolute gene expression day 15/day 1,[1],0.65
